Measured values reported in ChEMBL document CHEMBL3045583, “Increasing antitumor activity in vivo by enhancing acridine dimer solubility with salt preparations” (Med Chem Res, 2010).
Active and inactive are the calls of the source. The rule behind the calls is not given here.

Legend:
[1] = Solubility of compound in saline at 1 mg/ml; assay type: physicochemical; conditions: buffer
[2] = Solubility of compound in methanol at 1 mg/ml; assay type: physicochemical
[3] = Solubility of compound in water at 0.8 mg/ml; assay type: physicochemical; conditions: buffer
[4] = Solubility of compound in water at 1 mg/ml; assay type: physicochemical; conditions: buffer
COLO 205 [5] = assay: Antitumor activity against Homo sapiens (human) COLO205 xenografted in SCID mouse assessed as inhibition of tumor growth at 7.5 to 10 mg/kg, iv twice daily for 3 days for 2 administered as solution in 2.5% cremophor; assay type: functional, organism-based
COLO 205 [6] = assay: Antitumor activity against Homo sapiens (human) COLO205 xenografted in SCID mouse assessed as tumor growth at 1 to 5 mg/kg, iv twice daily for 3 days for 2 administered as solution in 2.5% cremophor; assay type: functional, organism-based
COLO 205 [7] = assay: Antitumor activity against Homo sapiens (human) COLO205 xenografted in SCID mouse assessed as inhibition of tumor growth at 2.5 to 10 mg/kg, iv twice daily for 3 days for 2 administered as solution in water; assay type: functional, organism-based
COLO 205 [8] = assay: Antitumor activity against Homo sapiens (human) COLO205 xenografted in SCID mouse assessed as tumor growth at 10 to 20 mg/kg, iv qd for 5 days for 2 administered as solution in 1% carboxymethy-cellulose; assay type: functional, organism-based
COLO 205 [9] = assay: Antitumor activity against Homo sapiens (human) COLO205 xenografted in SCID mouse assessed as tumor growth at 5 to 20 mg/kg, ip 4 times daily for 3 days administered as solution in 1% carboxymethy-cellulose; assay type: functional, organism-based
[10] = Solubility of compound in water at 8 mg/ml; assay type: physicochemical; conditions: buffer
[11] = Solubility of compound in saline at 0.4 mg/ml; assay type: physicochemical; conditions: buffer
[12] = Solubility of compound in methanol at 3.3 mg/ml; assay type: physicochemical

## COc1ccc2nc3cc(Cl)ccc3c(NCCCNCCCNc3c4ccc(Cl)cc4nc4ccc(OC)cc34)c2c1.CS(=O)(=O)O
[1]
  solubility: Insoluble
[2]
  solubility: soluble
[3]
  solubility: Insoluble

## COc1ccc2nc3cc(Cl)ccc3c(NCCCNCCCNc3c4ccc(Cl)cc4nc4ccc(OC)cc34)c2c1 [listing 1 of 2 here]
[1]
  solubility: Insoluble
[2]
  solubility: soluble
[4]
  solubility: Insoluble

## COc1ccc2nc3cc(Cl)ccc3c(NCCCNCCCNc3c4ccc(Cl)cc4nc4ccc(OC)cc34)c2c1 [listing 2 of 2 here]
COLO 205 [5]
  TGI: Active
COLO 205 [6]
  Activity: inactive
COLO 205 [7]
  TGI: Active
COLO 205 [8]
  Activity: inactive
COLO 205 [9]
  Activity: inactive

## CC(=O)O.CC(=O)O.CC(=O)O.COc1ccc2nc3cc(Cl)ccc3c(NCCCNCCCNc3c4ccc(Cl)cc4nc4ccc(OC)cc34)c2c1
[1]
  solubility: Insoluble
[10]
  solubility: soluble
[2]
  solubility: soluble

## COc1ccc2nc3cc(Cl)ccc3c(NCCCNCCCNc3c4ccc(Cl)cc4nc4ccc(OC)cc34)c2c1.O=C(O)C(F)(F)F.O=C(O)C(F)(F)F.O=C(O)C(F)(F)F
[11]
  solubility: soluble
[12]
  solubility: soluble
[4]
  solubility: Insoluble
